Experimental data published in patent publication US9943528B2 (MAPREG, priority 2016, dated 2018).
Entries after “also recorded” stand apart in the source; their conditions may differ.

Columns and labels:
[1] = tested on: purified tubulin and MAP2; test: Activity: increase in optical density at 345 nm of purified tubulin and MAP2 with GTP; assay type: biochemical; settings: 37° C.
Experimental: Activity is measured by the increase in optical density at 345 nm of a mixture of purified tubulin and MAP2, incubated at 37° C. in the presence of GTP.

MAP2 = test: Binding (affinity) by displacement of PREG-3H
PC12 cells = test: Stimulation of neuritic sprouting on PC12 cells differentiated with NGF; assay type: cell-based; settings: NGF 10 ng/ml, steroid 30 μM, 3 days, relative to PREG
Experimental: Stimulation of neuritic sprouting is conducted on PC12 cells differentiated in the presence of NGF (10 ng/ml) and the steroid being tested (30 μM) for 3 days. For each condition, the average length of the longest 200 neurites in each cell is measured simultaneously for 3 cultures.

[2] = tested on: Wistar Kyoto rat strain (WKY); settings: WKY rats, literature; cited from earlier work
WKY rats = settings: cited from earlier work; for resistance of WKY rats to the drug: fluoxetine acute or chronic, citalopram acute, paroxetine sub-chronic (12 days)
[3] = Body weight of WKY rats under acute treatment; assay type: in vivo, rat; settings: fluoxetine 10 mg/kg
Wistar Kyoto (WKY) rats = test: Open-field arena (OFA) in WKY rats, acute treatment; assay type: in vivo, rat; settings: fluoxetine 10 mg/kg i.p., ketamine 30 mg/kg i.p.; for number of entries in the central square of OFA, change vs WKY receiving only vehicle: FIG. 5B; for time spent in the center of open-field vs WKY receiving vehicle: FIG. 5C
Experimental: After a 6-day period of acclimatization, all experimental groups received daily successive subcutaneous (250 μl per rat) and intraperitoneal (1 ml/kg) injections. WI rats received injection of vehicle (sesame oil+saline) while WKY rats were randomly assigned to […] experimental groups, as follow: KWY rats receiving only vehicle (sesame oil+saline) and WKY rats treated with MAP4343 (10 mg/kg, s.c.; rats received in parallel i.p. injections of saline), fluoxetine (10 mg/kg i.p., rats received in parallel s.c. injections of sesame oil) or ketamine (30 mg/kg, i.p.; rats received in parallel s.c. injections of sesame oil) (see FIG. 3).
After, a 6-day period of acclimatization, the acute phase of treatment started for 4 days during behavioral tests were performed (FIG. 3). All animals were injected 1 h 30 before the starting of behavioral test.
The animals were individually placed in the open field arena (OFA) (70×100×70 cm), with a central square (35×50 cm), located in a 50 lux illuminated room and videotaped during 3 min using a computerized system (VideoTrack V2.5, ViewPoint, Lyon, France).
OFA allows firstly the evaluation of total locomotor activity (LMA) thereby measuring the total distance travelled in the arena (in cm). Secondly, measurements of the activity in the center of the arena like (i) the number of entries in the center of arena and (ii) the total time spent in the center of arena (in sec) provide cues of anxiety-like behavior (Prut and Belzung, 2003). All these behavioral parameters were instantaneously measured automatically with the VideoTrack V2.5 software from the videos.

[4] = target: T1, human progesterone receptor (PR) (Homo sapiens, UniProt P06401); test: Test of progesterone receptor agonist activity (MMTV-luciferase transactivation in transfected HEK293T cells); assay type: cell-based; settings: 24 hours, increasing amounts, FIG. 1
T1 construct: expressed in transfected cells; host or cells: HEK293T
T1 sequence (P06401 1-933): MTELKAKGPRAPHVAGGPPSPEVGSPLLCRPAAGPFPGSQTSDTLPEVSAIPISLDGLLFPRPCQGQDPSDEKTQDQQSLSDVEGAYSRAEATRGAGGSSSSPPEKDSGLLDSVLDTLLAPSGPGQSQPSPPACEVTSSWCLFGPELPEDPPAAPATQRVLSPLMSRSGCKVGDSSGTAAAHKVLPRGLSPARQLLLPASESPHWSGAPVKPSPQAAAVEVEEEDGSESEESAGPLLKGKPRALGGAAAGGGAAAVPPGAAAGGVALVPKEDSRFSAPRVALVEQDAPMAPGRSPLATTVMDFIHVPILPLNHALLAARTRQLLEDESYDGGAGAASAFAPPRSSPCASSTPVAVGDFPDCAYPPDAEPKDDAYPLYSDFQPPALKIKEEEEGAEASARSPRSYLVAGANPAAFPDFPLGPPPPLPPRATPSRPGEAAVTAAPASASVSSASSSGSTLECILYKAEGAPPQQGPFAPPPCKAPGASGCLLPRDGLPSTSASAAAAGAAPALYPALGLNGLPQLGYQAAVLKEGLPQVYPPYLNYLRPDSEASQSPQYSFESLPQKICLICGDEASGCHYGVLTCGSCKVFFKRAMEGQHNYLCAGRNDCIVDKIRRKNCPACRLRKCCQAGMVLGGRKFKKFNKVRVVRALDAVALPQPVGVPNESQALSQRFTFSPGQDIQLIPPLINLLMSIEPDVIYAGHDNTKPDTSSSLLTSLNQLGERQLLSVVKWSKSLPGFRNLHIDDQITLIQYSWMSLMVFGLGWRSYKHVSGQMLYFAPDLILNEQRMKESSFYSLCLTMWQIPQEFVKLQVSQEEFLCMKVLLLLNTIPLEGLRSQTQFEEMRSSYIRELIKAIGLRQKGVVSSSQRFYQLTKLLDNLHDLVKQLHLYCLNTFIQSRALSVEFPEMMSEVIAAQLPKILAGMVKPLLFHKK
Experimental: The main experimental setting used is the following: HEK293T cells were transiently transfected, using calcium phosphate precipitation technology, with expression vectors pSG5hPR (which permits expression of human progesterone receptor (PR)), pFC31-luc (contains the luciferase gene under the control of the MMTV promoter, which is in turn activated by binding of a progestin to progesterone receptor) and pcbetagal (which permits expression of betagalactosidase), and cultured during 24 hours with increasing amounts of various compositions:
Test of Progesterone Receptor Agonist Activity: Transfected Cells were Cultured with Increasing Amounts of Progesterone or 3-Methoxy-Pregnenolone

Compound	Activity [1]	Affinity (MAP2)	also measured
CC(=O)[C@H]1[C@H](C)C[C@H]2[C@@H]3CC[C@H]4C[C@@H](O)CC[C@]4(C)[C@H]3CC[C@@]21C [3β-hydroxy-5α-pregnane-20-one-16α-methyl]	53% of PREG	57% of PREG	–
CO[C@H]1CC[C@@]2(C)[C@@H](CC[C@@H]3[C@@H]2CC[C@]2(C)[C@@H](C(C)=O)CC[C@@H]32)C1 [3β-methoxy-5α-pregnane-20-one]	10% of PREG	87% of PREG	–
CO[C@H]1CC[C@@]2(C)C(CCC3C2CC[C@@]2(C)C3CC[C@@H]2[C@@H](C)O)C1 (stereo partly drawn) [3β-methoxy-5α-pregnane-20β-ol]	65% of PREG	65% of PREG	–
CO[C@H]1CC[C@@]2(C)C(=CC[C@H]3C4=CC[C@H](C(C)=O)[C@@]4(C)CC[C@@H]32)C1 [3β-methoxy-pregna-5,14-diene-20-one]	50% of PREG	102% of PREG	–
CO[C@H]1CC[C@@]2(C)C(=CC[C@@H]3[C@@H]2CC[C@@]2(C)[C@H]3CC[C@@]2(C(C)=O)C(Cl)Cl)C1 [3β-methoxy-pregna-5-ene-20-one-17α-dichloromethyl]	113% of PREG	53% of PREG	–
CC(=O)[C@@]12C[C@@H]1C[C@H]1[C@@H]3CC=C4C[C@@H](O)CC[C@]4(C)[C@H]3CC[C@@]12C [PREG-16α,17α-methylene]	49% of PREG	62% of PREG	Neuritic sprouting (PC12 cells): + (lower than)
CC(=O)[C@H]1[C@H](C)C[C@H]2[C@@H]3CC=C4C[C@@H](O)CC[C@]4(C)[C@H]3CC[C@@]21C [PREG-16α-methyl]	70% of PREG	80% of PREG	Neuritic sprouting (PC12 cells): ++ (equal to)
CC(=O)[C@H]1[C@@H](C)C[C@H]2[C@@H]3CC=C4C[C@@H](O)CC[C@]4(C)[C@H]3CC[C@@]21C [PREG-16β-methyl]	67% of PREG	63% of PREG	–
CC(=O)OC(C)C1CCC2C3CC=C4CC(O)CCC4(C)C3CCC12C (stereo not drawn) [Pregna-5-ene-3β, 20β-dio1-20-acetate]	108% of PREG	60% of PREG	Neuritic sprouting (PC12 cells): ++ (equal to)
CC(=O)[C@H]1CC[C@H]2[C@@H]3CC=C4C[C@@H](O)CC[C@]4(C)[C@H]3CC[C@]12C [Pregnenolone (PREG), 3β-hydroxypregn-5α-en-20α-one, reference compound]	100% of PREG	100% of PREG	Neuritic sprouting (PC12 cells): ++ (equal to)
CNCCCN1c2ccccc2CCc2ccccc21 [desipramine]	–	–	immobility / depressive-like behavior in FST [2]: efficient to reverse depressive-like behavior
CNCCC(Oc1ccc(C(F)(F)F)cc1)c1ccccc1 (stereo not drawn) [fluoxetine]	–	–	efficacy in OFA, EPM and FST (WKY rats; WKY rats, acute or chronic administration): no efficacy; resistance of WKY rats to the drug (WKY rats): resistant; body weight [3]: a reduced body weight; number of entries in the central square of OFA, change vs WKY receiving only vehicle (Wistar Kyoto (WKY) rats; MAP4343 10 mg/kg s.c.): failed to significantly modify the low entries in the center; time spent in the center of open-field vs WKY receiving vehicle (Wistar Kyoto (WKY) rats; MAP4343 10 mg/kg s.c.): did not induce any significant change of this measure; locomotor activity (total distance travelled in the open-field arena), change vs MAP4343-treated WKY (Wistar Kyoto (WKY) rats; FIG. 5A): −52%
CNC1(c2ccccc2Cl)CCCCC1=O (stereo not drawn) [ketamine]	–	–	immobility / depressive-like behavior in FST [2]: elicited antidepressant-like effect; also recorded: decrease immobility; locomotor activity (total distance travelled in the open-field arena), change vs WKY receiving vehicle (Wistar Kyoto (WKY) rats; MAP4343 10 mg/kg s.c., 3 min, FIG. 5A): no significant change of locomotor activity; number of entries in the central square of OFA, change vs WKY receiving only vehicle (Wistar Kyoto (WKY) rats; MAP4343 10 mg/kg s.c.): failed to significantly modify the low entries in the center; time spent in the center of open-field vs WKY receiving vehicle (Wistar Kyoto (WKY) rats; MAP4343 10 mg/kg s.c.): did not induce any significant change of this measure; locomotor activity (total distance travelled in the open-field arena), change vs MAP4343-treated WKY (Wistar Kyoto (WKY) rats; FIG. 5A): no significant change of locomotor activity
Fc1ccc([C@@H]2CCNC[C@H]2COc2ccc3c(c2)OCO3)cc1 [paroxetine]	–	–	resistance of WKY rats to the drug (WKY rats): resistant
NNCCc1ccccc1 [phenelzine]	–	–	immobility / depressive-like behavior in FST [2]: subacute efficacy to reduce immobility
CC(=O)[C@H]1CC[C@H]2[C@@H]3CCC4=CC(=O)CC[C@]4(C)[C@H]3CC[C@]12C [progesterone, reference compound]	–	–	progesterone receptor agonist activity (transactivation, expression of luciferase) [4]: permits a transactivation activity
PREG-16α,17α-epoxy	54% of PREG	41% of PREG	Neuritic sprouting (PC12 cells): + (lower than)
